Key:
isolated rat adipocytes = test: Glucose transport (2-deoxyglucose uptake) in isolated rat adipocytes; type: cell-based; conditions: isolated rat adipocytes; for stimulation of glucose transport in the presence of semicarbazide: 1 mM semicarbazide; for stimulation of glucose transport (2-DG uptake): 45 min incubation
Experimental: In order to determine whether salts formed by vanadate and benzylamine could produce an insulin mimetic effect, the effect of increasing concentrations of hexaquis(benzylammonium) decavanadate on glucose transport activity in isolated rat adipocytes was tested. […] In similar assays, the activity of hexaquis(benzylammonium) decavanadate, pentaquis(benzylammonium) decavanadate and tetraquis(benzylammonium) decavanadate on glucose transport activity in isolated rat adipocytes were analyzed.
To determine the possible insulin mimetic effect of certain vanadium arylalkylamines, the capacity of these compounds to enhance glucose transport in isolated rat adipocytes was tested. Adipose cells from Wistar rats were incubated for 45 minutes in basal conditions (Basal) or in the presence of 100 nM insulin (Ins), and different concentrations of. hexaquis(benzylammonium) decavanadate (B6V10) in the absence or in the presence of 1 mM semicarbazide (SCZ). Subsequently, 2-DG transport was measured over a 5 min. interval.
The effects of the three tested compounds (B6V10, B5V10 and B4V10) were compared. Adipose cells from Wistar rats were incubated for 45 minutes in basal conditions (Basal) or in the presence of 100 nM insulin (Ins), and different concentrations of. decavanadate (V10), hexaquis(benzylammonium) decavanadate (B6V10), pentaquis(benzylammonium) decavanadate (B5V10) or tetraquis(benzylammonium) decavanadate (B4V10) in the absence or in the presence of 1 mM semicarbazide (SCZ). 2-DG transport was measured over 5 min. intervals. […]
(§1) The effects of incubation with semicarbazide or phosphatidylinositol 3-kinase inhibitors were also investigated. Adipose cells were incubated with B6V10 (25 μM, 45 min) in the absence or presence of wortmannin (2 μM, 45 min), LY294002 (10 μM, 45 min) or semicarbazide (1 mM, 45 min) and thereafter 2-deoxyglucose uptake was determined during 5 min.

protein kinase B = test: Protein kinase B phosphorylation in isolated rat adipocytes; type: cell-based; conditions: 25 μM, rat adipocytes
Experimental: Isolated fat cells were disrupted for total membrane preparation by hypo-osmotic lysis in a 20 mM HES buffer and an antiprotease and antiphosphatase cocktail as reported by Abella et al. (2003, Diabetes 52: 1004-1013). Protein concentrations were determined by the Bradford method (Bradford, 1976, Anal. Biochem. 72: 248-254) with gamma-globulin as protein concentration standard. Immunoprecipitation and immunoblot assays were performed as previously described by Abella et al. (2004, Id.) with the use of a monoclonal antiphosphotyrosine antibody for the immunoprecipitation and an anti-insulin receptor antibody for immunoblotting, respectively. SDS-polyacrylamide gel electrophoresis was performed on membrane proteins following conventional procedures. Proteins were transferred to Immobilon and immunoblotting was performed as reported by Castello et al. (1994, J. Biol. Chem. 269: 5905-5912).
The mechanism of action of B6V10 was investigated in isolated rat adipocytes. Adipose cells from Wistar rats were incubated for different times in the presence of 25 μM hexaquis(benzylammonium) decavanadate (B6V10). Cells were also incubated in the presence of insulin (100 nM, 45 min), decavanadate (25 μM, 45 min) or semicarbazide (1 mM, 45 min). Subsequently, 2-deoxyglucose uptake (results shown in FIG. 7A), tyrosine phosphorylation of insulin receptor (FIG. 7B), phospho-Thr^308-protein kinase B (FIG. 7C) and phospho-Ser^473-protein kinase B (FIG. 7D) was measured. […] The phosphorylation of protein kinase B induced by B6V10 was parallel to activation of glucose transport (FIG. 7C and 7D).
as §1

[1] = test system: streptozotocin-induced diabetic rats; test: Chronic subcutaneous (osmotic minipump) treatment of streptozotocin (45 mg/kg) diabetic rats, glycemia; type: in vivo, rat; conditions: 2.5 μmol/kg/day by osmotic minipumps, about two weeks, STZ 45 mg/kg rats
Experimental: (§2) Male Wistar rats weighting 180-220 g were purchased from Harlan (Interfauna Ibèrica S.A., Spain). Diabetes was induced by a single intraperitoneal injection of a freshly prepared solution of streptozotocin (in some studies the dose was 45 mg/kg body weight and in some others 100 mg/kg body weight dissolved in 50 mM citrate buffer, pH 4.5). Only diabetic animals with glycemia above 300 mg/dl were used. The animals were housed in animal quarters at 22° C., with a 12 h light/12 h dark cycle and were fed ad libitum. All procedures used were approved by the animal ethical committee of the University of Barcelona, Spain. Male mice C57 BL/Ks bearing the db/db mutation (Jackson Laboratories, Bar Harbor, Me.) were purchased from Harlan France (Gannat, France). C57BL/6J male mice were assigned for 16 weeks to very high-fat diet containing (in kcal): 72% from fat, 28% from proteins and <1% from carbohydrates (Burcelin et al., 2002, Am. J. Physiol. Endocrinol. Metab 282: E834-E842).
(§3) Osmotic minipumps delivering B6V10 (2.5 μmol/kg body wt/day) or decavanadate (2.5 μmol/kg body wt/day) were implanted subcutaneously in diabetic rats anaesthetised by ketamine hydrochloride (95 mg/kg) and xylasine (10 mg/kg). […] Glycemia was measured on arterio-venous blood collected from the tail vessels at 09:00 am for two weeks, before the administration of vanadate. Insulin concentrations were determined before and after treatment. In another set of experiments, B6V10 was orally administered at a single dose of 5 μmol/kg/day during the first week and 10 μmol/kg/day during 2 additional weeks by gastric gavage. A control group received the corresponding decavanadate salt in the absence of benzylamine. At the end of the treatment, animals were sacrificed and the liver, fat pad, heart and lung were kept at −80° C. and the plasma at −20° C. until their use for in vitro analysis.
(§4) In glucose tolerance tests and in chronic treatments, circulating glucose concentrations were determined by a rapid glucose analyser (Accutrend® Sensor Comfort, Roche, Basel. Switzerland). Plasma insulin (IRI) concentration was determined by ELISA method using a kit obtained from Crystal Chem Inc. (Downers Grove, Ill.). Plasma triglycerides (Biosystems, Barcelona, Spain) and NEFAS (Wako Chemicals, Neuss, Germany) were determined with standard […] methods.
The effect of chronic administration of hexaquis(benzylammonium) decavanadate on glycemia from diabetic rats was determined. Thus, diabetes was induced in rats by intravenous administration of streptozotocin, which destroys the β-pancreatic cells that produce insulin.
Chronic in vivo efficacy of B6V10 was evaluated in streptozotocin-induced diabetic rats and in db/db mice. Streptozotocin-induced (45 mg/kg) diabetic rats were subcutaneously treated with hexaquis(benzylammonium) decavanadate (2.5 μmol/kg) (B6V10, solid squares, FIG. 8A) or with decavanadate (2.5 μmol/kg) (V10, open circles, FIG. 8A) delivered subcutaneously by osmotic minipumps implanted in the dorsal region. Diabetic rats were also sham-operated (untreated, solid diamonds, FIG. 8A). […] These experiments were repeated using an oral administration protocol. Streptozotocin-induced (45 mg/kg) diabetic rats were orally treated with hexaquis(benzylammonium) decavanadate (5 μmol/kg from day 0 to day 7 and 10 μmol/kg/day from day 7 to day 17) (B6V10, solid squares, FIG. 8B) or received decavanadate (10 μmol/kg) (V10, open circles, FIG. 8B). […]

[2] = test system: streptozotocin-induced diabetic rat with undetectable circulating insulin; test: Subcutaneous treatment of streptozotocin (100 mg/kg) diabetic rats with undetectable circulating insulin; type: in vivo; conditions: 2.5 μmol/kg subcutaneous minipumps, STZ 100 mg/kg
Experimental: as §2, §4
To this end, rats were made diabetic by the injection of a large dose of streptozotocin (100 mg/kg) that eliminates β-pancreatic insulin content. […] These streptozotocin-induced diabetic rats were subcutaneously treated with B6V10 (2.5 μmol/kg) (solid squares, FIG. 9A) delivered by osmotic minipumps or left untreated (solid circles, FIG. 9A). Sham-operated nondiabetic rats were also untreated (solid triangles, FIG. 9A).
The concentration of circulating glucose under these conditions was also assayed. After 28 days of treating diabetic rats with hexaquis(benzylammonium) decavanadate (2.5 μmol/kg) (wide striped bars, FIG. 9B), or with decavanadate (close striped bars, FIG. 9B) delivered by osmotic minipumps, plasma insulin and glucose were measured. Untreated diabetic (solid bars, FIG. 9B) or nondiabetic rats (open bars, FIG. 9B) were similarly assayed as controls.

[3] = test system: streptozotocin-induced diabetic rats; test: Chronic oral treatment of streptozotocin (45 mg/kg) diabetic rats, glycemia; type: in vivo, rat; conditions: for glycemia during chronic oral treatment: daily oral, 17 days (5 then 10 μmol/kg/day), STZ 45 mg/kg rats
Experimental: as §2, §3, §4
The effect of the oral administration of hexaquis(benzylammonium) decavanadate on glycemia from diabetic rats was also studied. Diabetes was induced in rats by intravenous administration of streptozotocin, and subsequently, a hexaquis(benzylammonium) decavanadate or sodium decavanadate unique dose was administered to the rats. […] After seven days of treatment, the dose was increased at 10 μmol/kg/day which was maintained for an additional ten days. […] Thus, glycemia in sodium decavanadate treated rats was approximately 450 mg/dl and glycemia of hexaquis(benzylammonium) decavanadate treated rats was approximately 250 mg/dl.
Chronic in vivo efficacy of B6V10 was evaluated in streptozotocin-induced diabetic rats and in db/db mice. Streptozotocin-induced (45 mg/kg) diabetic rats were subcutaneously treated with hexaquis(benzylammonium) decavanadate (2.5 μmol/kg) (B6V10, solid squares, FIG. 8A) or with decavanadate (2.5 μmol/kg) (V10, open circles, FIG. 8A) delivered subcutaneously by osmotic minipumps implanted in the dorsal region. Diabetic rats were also sham-operated (untreated, solid diamonds, FIG. 8A). […] These experiments were repeated using an oral administration protocol. Streptozotocin-induced (45 mg/kg) diabetic rats were orally treated with hexaquis(benzylammonium) decavanadate (5 μmol/kg from day 0 to day 7 and 10 μmol/kg/day from day 7 to day 17) (B6V10, solid squares, FIG. 8B) or received decavanadate (10 μmol/kg) (V10, open circles, FIG. 8B). Nondiabetic rats were also untreated (solid triangles, FIG. 8B).

| Substance | stimulation of glucose transport in the presence of semicarbazide (isolated rat adipocytes; dihydrate) | stimulation of glucose transport in the presence of semicarbazide (isolated rat adipocytes; listed as pentaquis(benzylammonium) decavanadate, dihydrate) | stimulation of glucose transport (2-DG uptake) (isolated rat adipocytes) | protein kinase B phosphorylation (protein kinase B) | glycemia during chronic subcutaneous treatment [1] | glycemia during chronic subcutaneous treatment ([1]; listed as sodium decavanadate) | glycemia in diabetic rats with undetectable insulin [2] | glycemia during chronic oral treatment [3] | glycemia during chronic oral treatment ([3]; listed as sodium decavanadate) | glycemia ([3]; oral treatment, after dose increase to 10 μmol/kg/day) | stimulation of glucose transport in the presence of semicarbazide (isolated rat adipocytes; listed as tetraquis(benzylammonium) decavanadate, Dihydrate) |
| --- | --- | --- | --- | --- | --- | --- | --- | --- | --- | --- | --- |
| pentaquis(benzylammonium) decavanadate (V) dihydrate [Entry B5V10] | blocked in the presence of semicarbazide | this effect was inhibited | pronounced stimulation on glucose transport | – | – | – | – | – | – | – | – |
| sodium decavanadate [Entry V10, reference compound] | – | – | did not stimulate glucose transport | not observed | did not alter glycemia | did not modify substantially its glycemia | did not show any change in circulating glucose | did not alter glycemia | not affected substantially | approximately 450 mg/dl | – |
| Tetraquis(Benzylammonium) Decavanadate (V) Dihydrate [Entry B4V10] | blocked in the presence of semicarbazide | – | pronounced stimulation on glucose transport | – | – | – | – | – | – | – | this effect was inhibited |
